In data set [1] the test system is HeLa cells. In words: Propidium iodide cell staining assay for necrotic cells. In kind it is cell-based. The following applies: flow cytometry PI channel; for Propidium iodide staining, shift of cell population (in words): KLA m ~ 10 5 hr, staurosporine 1 µM 24 hrs. (In general: In flow cytometry, cells or beads pass a laser one at a time.)
Description: Apoptosis and necrosis assays. Apoptotic and necrotic cells were identified using the CFTM488A Annexin V
stains necrotic cells. For these studies, HeLa cells were plated at a density of 420,000 cells per well of a 6-well
plate 18 hrs prior to treatment. KLA, m ~ 10, was dissolved in DPBS to a concentration of 2000 µM, where
concentration is with respect to peptide and no fluorophore is present. Staurosporin, a small molecule that is
known to cause apoptosis, was dissolved at 1000× (desired concentration on cells is 1 µM) in DMSO.
Staurosporin and the vehicle control were added to the wells 24 hrs prior to analysis, and KLA (m ~ 10) and 10%
DMSO control were added 5 hr prior to analysis. After incubation, materials were removed and the cells were
washed 2× with DPBS followed by 3 × 5 minute incubations with heparin (0.5 mg/mL in DPBS), and finally rinsed
and the cells were transferred to Eppendorf tubes. The suspended cells were centrifuged to pellets and then
resuspended in 100 µL Annexin V binding buffer. Then 5 µL of Annexin V was added to each Eppendorf, followed
by 1 µL of PI. The cells were then incubated in a 37 ° C water bath for 15 minutes in the dark. After incubation,
flow cytometry data was acquired monitoring the FITC channel (for Annexin V staining) and the PI channel.
Another data set deals with cells. Conditions: cited from earlier work.
The nature of data set [2]: Aggregation in DPBS by dynamic light scattering. Conditions: for diameter by DLS: dissolved in DPBS, 10 x the concentration used in uptake studies, correlates to unimers. The format is physicochemical. The source says:
(§1) and dried. In preparation for in vitro cell studies, all polymers were washed (3×) with cold ether (to remove the Ru catalyst) and then dissolved in DPBS and dialyzed in dialysis cups with a molecular weight cut-off value of 3500 (Thermo Scientific, cat. # 69552) in an effort to remove any residual monomer or catalyst.
(§2) We also sought to determine whether our block copolymers (i.e., GSGSGRR60-b-OEG20 and derivatives) formed larger aggregate structures in aqueous solution. To this end, we characterized three polymers GSGSGRR m ~ 60, GSGSGKK m ~ 60 and GSGSG m ~ 60 dissolved in DPBS by standard dynamic light scattering (DLS) and […] electron microscopy (TEM) analyses, which we perform routinely in other work to characterize nano-and micron-scale polymer assemblies. […]
quench here with IV. deprotection
(§3) Figure S5. Polymerization scheme for the preparation of GSGSG peptide polymers and analogues. Peptide polymers for this series are prepared via ROMP as block copolymers with an accessory OEG block to ensure aqueous solubility of all GSGSG analogues. Each peptide block is polymerized to m ~ 8, 15, 30, and 60. The OEG block is kept constant at a DP of ~ 20. The living polymer can be terminated with ethyl vinyl ether after completion of the peptide block to gain accurate molecular weights (Mn), dispersity (Mw/Mn) and degree of polymerization (DP). […]

Data set [3] is described as follows: Aggregation in DPBS by TEM. The format is physicochemical. The following applies: dissolved in DPBS, 10 x the concentration used in uptake studies.
Description: as §1, §2, §3

Data set [4] deals with HeLa cells.
For data set [5], the system named is HeLa cells. This is another data set of the same source.
Another data set addresses trypsin (Sus scrofa, UniProt P00761). Conditions: 50 µM with respect to peptide, protease 1 µM (Fig. S25 for KLA: 10 µM), 3 hrs in DPBS, heat denatured 65 °C 15 m, RP-HPLC with standard curve.
The test system of data set [6] is pronase (protease cocktail). Conditions: 50 µM with respect to peptide, protease 1 µM (Fig. S25 for KLA: 10 µM), 3 hrs in DPBS, heat denatured 65 °C 15 m, RP-HPLC with standard curve.
Data set [7] has as its system HeLa cells. The format is cell-based. How it is done:
Figures S10. Influence of the degree of polymerization or “m” on cellular uptake as quantified by flow cytometry. All data are […] with respect to the fluorophore. 20 15 10 Conc.&(μM)& […] 5 […] 0 […] Figures S11. Concentration dependence of cellular uptake as quantified by flow cytometry. All data are referenced to vehicle […] Concentration of all materials is with respect to the fluorophore. SVI. Live-cell confocal microscopy. HeLa cells were plated on glass-bottom 24-well plates at a cell density of 90,000 cells per well 18 hrs prior to treatment with the compound of interest. The medium was removed and then replaced with medium lacking phenol red (Gibco Life Tech., cat# 31053-028) to minimize background fluorescence. […] respect to fluorophore) were added to the wells and the plates were incubated for 30 min at 37 °C. The medium was then removed and the cells were rinsed 2× with DPBS, and then fresh medium (phenol red- free) was added to each well. Live cells were imaged on an Olympus FV1000 confocal microscope with a chamber at 37 ° C under 5% CO2 via a Z-stack analysis (set to 1 μm slices) using identical instrument settings for each image and a 40× or 100x objective. S14 (also on this page, place not known: 31053 -028) […] Normalized Mean Fluorescence […]

The test system of data set [8] is mitochondrial membrane potential in HeLa cells. The experiment in a line: JC-1 mitochondrial integrity (membrane potential) assay. Conditions: JC-1 assay, relative to vehicle (DPBS)-treated cells. The format is cell-based.

NorAha = not defined here

Chain of trypsin (P00761 9-231): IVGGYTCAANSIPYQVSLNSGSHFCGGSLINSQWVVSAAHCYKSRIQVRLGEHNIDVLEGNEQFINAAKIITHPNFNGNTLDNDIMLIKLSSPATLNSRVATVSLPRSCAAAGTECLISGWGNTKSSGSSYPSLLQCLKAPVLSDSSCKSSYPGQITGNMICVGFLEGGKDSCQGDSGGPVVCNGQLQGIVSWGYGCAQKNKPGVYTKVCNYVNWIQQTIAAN

As for `C[S+](C)[O-]` [DMSO], in the data set with HeLa cells [1] (10% DMSO added 5 hr prior to analysis), the “Propidium iodide staining, increase in necrotic cells” value is given as roughly 40 fold increase.
Consider `CN[C@@H]1C[C@H]2O[C@@](C)([C@@H]1OC)n1c3ccccc3c3c4c(c5c6ccccc6n2c5c31)C(=O)NC4` [Staurosporine], for which, in the data set with HeLa cells [1], the “Propidium iodide staining, shift of cell population (in words)” value is listed as “no shift”.
GSGSG: in the data set with cells, the “Cell penetration of GSGSG (in words)” value was “does not penetrate cells”.
With GSGSG56-b-OEG28 [GSGSG polymer], the “diameter by DLS” value in data set [2] is less than 6 nm. In addition, the “TEM images compared with buffer (DPBS) alone” value in [3] is given as “indistinguishable”.
Consider “GSGSGK53-b-OEG20 [GSGSGK Polymer (m ~ 60)]”, for which, in [2] (DPBS, deprotected polymer), the “Aggregation of deprotected polymer in DPBS by dynamic light scattering (in words)” value is reported as “did not aggregate in DPBS”.
For K(Flu)KLAKLAKKLAKLAK-NH2 [KLA peptide], the “Cellular uptake: fluorescence signal of treated HeLa cells by flow cytometry (in words)” value in the data set with HeLa cells [4] is reported as “indistinguishable from that of the vehicle control”. In addition, the “Cytotoxicity (in words)” value in the data set on HeLa cells [5] is recorded as “no cytotoxicity was detected”. The “Proteolytic degradation by trypsin (RP-HPLC before and after, in words)” value at trypsin is recorded as “completely degraded into fragments”. Further, the “Proteolytic degradation by pronase (RP-HPLC before and after, in words)” value in [6] is on record as “completely degraded into fragments”. In addition, the “Cell penetration of KLA (in words)” value in the data set on cells (sub-millimolar concentrations) is on record as “does not penetrate cells at sub-millimolar concentrations”.
Consider NorAhaGSGSGKK-NH2 [GSGSGKK polymer], for which, in data set [2], the “diameter by DLS” value is less than 6 nm. Besides, the “TEM images compared with buffer (DPBS) alone” value in [3] is reported as “indistinguishable”. Also, in the data set on HeLa cells [7], the “Internalization and localization by live-cell confocal microscopy (in words)” value (“Internalization and localization” below) is “diffuse and punctate fluorescence”.
As for “NorAhaKLAKLAK-NH2 (NorAha-KLAKLAK-NH2; reading uncertain; also: polymerized by ROMP, about 10 repeats on polymer backbone) [KLAfragment]”, the “Mitochondrial integrity of treated cells (in words)” value in data set [8] is listed as “unaffected”. Also, the “Internalization and localization” value in the data set on HeLa cells [7] was “mixture of diffuse and punctate fluorescence”. The “Cytotoxicity (in words)” value with HeLa cells [5] is listed as “negligible toxicity”.
Turning to “NorAhaKLAKLAKKLAKLAK-NH2 [KLA polymer (m ∼ 5)]”, in the data set with HeLa cells [5], the LD50 was 12.5 µM.
As to “NorAhaKLAKLAKKLAKLAK-NH2 [KLA polymer (m ∼ 10)]”, the “Propidium iodide staining, shift of cell population (in words)” value in the data set on HeLa cells [1] was “no shift”. Besides, in the data set with HeLa cells [7], the “Internalization and localization” value is “diffuse and punctate fluorescence”. Also, in the data set on HeLa cells [5], the LD50 is 25 µM.
Take “NorAhaKLAKLAKKLAKLAK-NH2 [KLA polymer (m ∼ 15)]”: the LD50 with HeLa cells [5] stood at 30 µM.
